Source: US20040191289A1, “Compositions for controlling plant pathogenic bacterium and method of controlling plant pathogenic bacterium” (priority 2001, published 2004)

Experiments:
[1] = system: Pythium Damping-off Disease of Rice Seedlings; assay: Test for prophylactic efficacy against Pythium damping-off disease of rice seedlings (2) (Test Example 3); assay type: in vivo; conditions: soil irrigation, 35 days after sowing
Protocol: (§1) AS resin cases (each 15×11 cm) were filled with pathogen-inoculated soil as bed soil, and seeded with rice seeds. Next, the AS resin case was irrigated using a pipette with a test solution (50 ml) prepared by adjusting each active ingredient compound to a predetermined concentration, and then covered with soil. After kept for 3 days in a thermostatic room set at 32° C., the plants were grown in a greenhouse. Ten days after sowing, the plants were exposed to a cold temperature during night for 3 days. Thirty five days after sowing, the disease incidence area was examined. In these cases, each theoretically expected value obtained from the aforementioned formula derived from the Colby's formula is shown in parentheses in Table 4.

[2] = system: Pythium Damping-off Disease of Rice Seedlings; assay: Test for prophylactic efficacy against Pythium damping-off disease of rice seedlings (1) (Test Example 2); assay type: in vivo; conditions: soil irrigation, 29 days after sowing
Protocol: as §1, with “Polyvinyl chloride cups” for “AS resin cases”, “10 cm square)” for “15×11 cm)”, “polyvinyl chloride cup” for “AS resin case”, “(27.8” for “(50”, “night. Twenty nine” for “night for 3 days. Thirty five”, “3.” for “4.”

Pythium aphanidermatum = assay: Antimicrobial test, mycelial growth on PSA medium (Test Example 1); assay type: cell-based; conditions: 20° C., 2 day incubation
Protocol: (§2) Each sample fungal flora pre-cultured in PSA medium was cut from the medium plate with a cork borer, and placed on a center of PSA medium containing each test compound at a predetermined concentration, dispensed in a Petri dish with an inner diameter of 8 cm. Immediately thereafter, the dish was allowed to stand in a thermostatic room set at 20° C. The diameters of the flora zones were measured after 2 day incubation. A mycelial growth rate is calculated according to the following equation. […] A theoretically expected value can be calculated according to the following formula derived from the so-called Colby's formula. In cases where an observed value is lower than the theoretically expected one obtained from the formula derived from the Colby's formula, the phytopathogenic microorganism-disinfecting composition of the present invention is synergistically effective in combating and/or eliminating phytopathogenic microorganisms.

Pythium spinosum = assay: as above; assay type: cell-based; conditions: 20° C., 2 day incubation
Protocol: as §2

[3] = system: Aphanomyces cochlioides (MAFF No. 305548); assay: Antimicrobial test, mycelial growth on PSA medium (Test Example 4); assay type: cell-based; conditions: 20° C., 3 day incubation
Protocol: (§3) Each sample fungal flora pre-cultured in PSA medium was cut from the medium plate with a cork borer, and placed on a center of PSA medium containing each test compound at a predetermined concentration, dispensed in a Petri dish with an inner diameter of 8 cm. Immediately thereafter, the dish was allowed to stand in a thermostatic room set at 20° C. […] In cases where an observed value is lower than the theoretically expected one derived from the Colby's formula, the phytopathogenic microorganism-disinfecting composition of the present invention is synergistically effective in combating and/or eliminating phytopathogenic microorganisms.

[4] = system: Pythium debaryanum (MAFF No. 305462); assay: as above; assay type: cell-based; conditions: 20° C., 1 day incubation
Protocol: as §3

## Cc1ccc(-c2c(Cl)nc(C#N)n2S(=O)(=O)N(C)C)cc1 [Compound No. 1, 4-chloro-2-cyano-1-dimethylsulfamoyl-5-(4-methyl-phenyl)imidazole]
[1]; Compound No. 1 139 g/ha alone
  Damping-off Incidence Area Rate (%): 50%
[2]; Compound No. 1 278 g/ha alone
  Damping-off Incidence Area Rate (%): 67%
Pythium aphanidermatum; Compound No. 1 25 ppm alone
  Mycelial Growth Rate (%): 21.1%
Pythium aphanidermatum; Compound No. 1 50 ppm alone
  Mycelial Growth Rate (%): 6.3%
Pythium aphanidermatum; Compound No. 1 100 ppm alone
  Mycelial Growth Rate (%): 9.4%
Pythium spinosum; Compound No. 1 25 ppm alone
  Mycelial Growth Rate (%): 14.4%
Pythium spinosum; Compound No. 1 50 ppm alone
  Mycelial Growth Rate (%): 9.3%
Pythium spinosum; Compound No. 1 100 ppm alone
  Mycelial Growth Rate (%): 2.1%
[3]; Compound No. 1 25 ppm alone
  Mycelial Growth Rate (%): 52%
[3]; Compound No. 1 50 ppm alone
  Mycelial Growth Rate (%): 29%
[3]; Compound No. 1 100 ppm alone
  Mycelial Growth Rate (%): 11%
[4]; Compound No. 1 25 ppm alone
  Mycelial Growth Rate (%): 59%
[4]; Compound No. 1 50 ppm alone
  Mycelial Growth Rate (%): 49%
[4]; Compound No. 1 100 ppm alone
  Mycelial Growth Rate (%): 44%

## Cc1cc(O)no1 [Hymexazol, 5-methylisoxazol-3-ol]
[1]; Hymexazol 1,040 g/ha alone (Compound No. 1 0 ppm)
  Damping-off Incidence Area Rate (%): 90%
[2]; Hymexazol 1,040 g/ha alone
  Damping-off Incidence Area Rate (%): 50%
Pythium aphanidermatum; Hymexazol 25 ppm alone
  Mycelial Growth Rate (%): 22.7%
Pythium aphanidermatum; Hymexazol 50 ppm alone
  Mycelial Growth Rate (%): 16.4%
Pythium aphanidermatum; Hymexazol 100 ppm alone
  Mycelial Growth Rate (%): 6.3%
Pythium spinosum; Hymexazol 25 ppm alone
  Mycelial Growth Rate (%): 27.8%
Pythium spinosum; Hymexazol 50 ppm alone
  Mycelial Growth Rate (%): 21.6%
Pythium spinosum; Hymexazol 100 ppm alone
  Mycelial Growth Rate (%): 23.7%
[3]; Hymexazol 25 ppm alone
  Mycelial Growth Rate (%): 53%
[3]; Hymexazol 50 ppm alone
  Mycelial Growth Rate (%): 43%
[3]; Hymexazol 100 ppm alone
  Mycelial Growth Rate (%): 43%
[4]; Hymexazol 25 ppm alone
  Mycelial Growth Rate (%): 89%
[4]; Hymexazol 50 ppm alone
  Mycelial Growth Rate (%): 84%
[4]; Hymexazol 100 ppm alone
  Mycelial Growth Rate (%): 67%
